Reference: PubChem BioAssay AID248 (DTP/NCI, 2004)
Values joined by “and” are separate entries in the source; they are usually repeats but may differ in a detail not shown here. Identical values can stand only once. Inconclusive results and toxic doses are left out. Cut-off read from the data, not from the text of the source: active = T/C of 150% or more; inactive = T/C below 125%.

System: L1210 leukemia ip in BDF1 mice, survival T/C
Test: NCI In Vivo Anticancer Drug Screen. Data for tumor model L1210 Leukemia (intraperitoneal) in B6D2F1 (BDF1) mice
Conditions: endpoint: mean survival time, higher = longer survival
Method in brief: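 Each compound was tested against a transplantable tumor grown in mice. The endpoint was survival, with treated animals benchmarked against vehicle controls as a simple ratio.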

[1] = dose: 100.0 mg/kg/injection, schedule: Q01DX009 (ip), vehicle: saline with Tween-80
[2] = dose: 200.0 mg/kg/injection, schedule: Q01DX009 (ip), vehicle: saline with Tween-80
[3] = dose: 400.0 mg/kg/injection, schedule: Q01DX009 (ip), vehicle: saline with Tween-80
[4] = dose: 100.0 mg/kg/injection, schedule: Q04DX003 (ip), vehicle: Klucel (hydroxypropylcellulose) (HPC)
[5] = dose: 200.0 mg/kg/injection, schedule: Q04DX003 (ip), vehicle: Klucel (hydroxypropylcellulose) (HPC)
[6] = dose: 400.0 mg/kg/injection, schedule: Q04DX003 (ip), vehicle: Klucel (hydroxypropylcellulose) (HPC)
[7] = dose: 100.0 mg/kg/injection, schedule: Q04DX003 (ip), vehicle: saline
[8] = dose: 200.0 mg/kg/injection, schedule: Q04DX003 (ip), vehicle: saline
[9] = dose: 100.0 mg/kg/injection, schedule: Q01DX009 (ip), vehicle: Klucel (hydroxypropylcellulose) (HPC)
[10] = dose: 200.0 mg/kg/injection, schedule: Q01DX009 (ip), vehicle: Klucel (hydroxypropylcellulose) (HPC)
[11] = dose: 100.0 mg/kg/injection, schedule: Q01DX001 (ip), vehicle: Klucel (hydroxypropylcellulose) (HPC)
[12] = dose: 50.0 mg/kg/injection, schedule: Q01DX001 (ip), vehicle: carboxymethylcellulose (CMC)
[13] = dose: 50.0 mg/kg/injection, schedule: Q01DX009 (ip), vehicle: Klucel (hydroxypropylcellulose) (HPC)
[14] = dose: 100.0 mg/kg/injection, schedule: Q01DX001 (ip), vehicle: carboxymethylcellulose (CMC)
[15] = dose: 200.0 mg/kg/injection, schedule: Q01DX001 (ip), vehicle: carboxymethylcellulose (CMC)
[16] = dose: 400.0 mg/kg/injection, schedule: Q01DX001 (ip), vehicle: carboxymethylcellulose (CMC)

Measured: T/C

CCCCCCCCCCCCCCCC(=O)N(c1ccc(NC(=O)Nc2ccc(N(C(=O)CCCCCCCCCCCCCCC)C(C)CCCN(CC)CC)cc2)cc1)C(C)CCCN(CC)CC (stereo unspecified)
inactive: [1] 90 % of control | [2] 92 % of control | [3] 97 % of control

Cc1ccc(C(=O)O)cc1[N+](=O)[O-]
inactive: [4] 95 % of control | [5] 92 % of control | [6] 103 % of control

COc1ccc2c(c1)CC/C(=C\c1cccnc1)C2=O
inactive: dose: 100.0 mg/kg/injection, schedule: Q04DX003 (ip), vehicle: carboxymethylcellulose (CMC) 110 % of control | dose: 200.0 mg/kg/injection, schedule: Q04DX003 (ip), vehicle: carboxymethylcellulose (CMC) 96 % of control | dose: 400.0 mg/kg/injection, schedule: Q04DX003 (ip), vehicle: carboxymethylcellulose (CMC) 94 % of control

O=C(CCl)OC(=O)C(Cl)(Cl)Cl
inactive: [7] 102 % of control | [8] 96 % of control

CCCCS(=O)(=O)F
inactive: dose: 100.0 mg/kg/injection, schedule: Q04DX002 (ip), vehicle: saline with Tween-80 93 % of control

CCCCO.CCCCO.Cl.[O]=[V]
inactive: dose: 4.0 mg/kg/injection, schedule: Q01DX015 (ip), vehicle: other 97 % of control | dose: 8.0 mg/kg/injection, schedule: Q01DX015 (ip), vehicle: other 97 % of control | dose: 16.0 mg/kg/injection, schedule: Q01DX015 (ip), vehicle: other 96 % of control | dose: 32.0 mg/kg/injection, schedule: Q01DX015 (ip), vehicle: other 108 % of control

C1CN(CC2COC(CN3CCOCC3)CO2)CCO1 (stereo unspecified)
inactive: [7] 106 % of control | [8] 97 % of control | dose: 400.0 mg/kg/injection, schedule: Q04DX003 (ip), vehicle: saline 98 % of control

Cc1cnc(N)cn1 (tested in a mixture with another compound)
inactive: [4] 102 % of control | [5] 109 % of control | [6] 88 % of control

CN(C)c1ccc(/C=C2\C=Nc3ccccc32)cc1
inactive: dose: 100.0 mg/kg/injection, schedule: Q04DX003 (ip), vehicle: saline with Tween-80 87 % of control | dose: 200.0 mg/kg/injection, schedule: Q04DX003 (ip), vehicle: saline with Tween-80 87 % of control | dose: 400.0 mg/kg/injection, schedule: Q04DX003 (ip), vehicle: saline with Tween-80 87 % of control

CC(=NC(CC(C)C)C(=O)O)NC(CC(C)C)C(=O)O (stereo unspecified)
inactive: [9] 101 % of control | [10] 110 % of control | dose: 400.0 mg/kg/injection, schedule: Q01DX009 (ip), vehicle: Klucel (hydroxypropylcellulose) (HPC) 103 % of control

O=c1cc(NCc2ccccc2)[nH]c(=O)[nH]1
inactive: dose: 50.0 mg/kg/injection, schedule: Q01DX001 (ip), vehicle: Klucel (hydroxypropylcellulose) (HPC) 91 % of control | [11] 97 % of control

COc1ccc(N=O)c(O)c1
inactive: dose: 25.0 mg/kg/injection, schedule: Q01DX009 (ip), vehicle: Klucel (hydroxypropylcellulose) (HPC) 104 % of control | [12] 93 % of control | [13] 103 % of control | [14] 97 % of control | [9] 106 % of control | [15] 104 % of control | [16] 101 % of control

CC(=O)/C=C(/C(=O)c1ccccc1)c1ccccc1
inactive: dose: 100.0 mg/kg/injection, schedule: Q01DX001 (ip), vehicle: saline with Tween-80 93 % of control | dose: 200.0 mg/kg/injection, schedule: Q01DX001 (ip), vehicle: saline with Tween-80 98 % of control | dose: 400.0 mg/kg/injection, schedule: Q01DX001 (ip), vehicle: saline with Tween-80 97 % of control

Nc1nc2nc(-c3ccccc3)nc(N)c2nc1-c1ccc(N(CCCl)CCCl)cc1
inactive: [12] 98 % of control | [14] 95 % of control | [15] 101 % of control | [16] 98 % of control

COC(=O)c1cccn1C(=O)c1ccccc1[N+](=O)[O-]
inactive: dose: 50.0 mg/kg/injection, schedule: Q04DX002 (ip), vehicle: other 105 % of control | dose: 100.0 mg/kg/injection, schedule: Q04DX002 (ip), vehicle: other 97 % of control | dose: 200.0 mg/kg/injection, schedule: Q04DX002 (ip), vehicle: other 94 % of control

CCCCCCCCCCCCCCC(=O)O
inactive: [11] 108 % of control | dose: 200.0 mg/kg/injection, schedule: Q01DX001 (ip), vehicle: Klucel (hydroxypropylcellulose) (HPC) 93 % of control | dose: 400.0 mg/kg/injection, schedule: Q01DX001 (ip), vehicle: Klucel (hydroxypropylcellulose) (HPC) 93 % of control

CCCCCCCNC(=O)Nc1cc([N+](=O)[O-])ccc1C
inactive: [1] 98 % of control | [2] 98 % of control | [3] 94 % of control

C(=C/c1nc2ccccc2o1)/c1ccc2c(c1)OCO2
inactive: dose: 100.0 mg/kg/injection, schedule: Q04DX002 (ip), vehicle: Klucel (hydroxypropylcellulose) (HPC) 97 % of control | dose: 200.0 mg/kg/injection, schedule: Q04DX002 (ip), vehicle: Klucel (hydroxypropylcellulose) (HPC) 97 % of control | dose: 400.0 mg/kg/injection, schedule: Q04DX002 (ip), vehicle: Klucel (hydroxypropylcellulose) (HPC) 97 % of control

NC(=O)Nc1ccccc1O
inactive: dose: 75.0 mg/kg/injection, schedule: Q04DX002 (ip), vehicle: saline with Tween-80 102 % of control | dose: 150.0 mg/kg/injection, schedule: Q04DX002 (ip), vehicle: saline with Tween-80 87 % of control | dose: 300.0 mg/kg/injection, schedule: Q04DX002 (ip), vehicle: saline with Tween-80 97 % of control

CCOc1ccc(Nc2c3ccccc3nc3ccccc23)cc1
inactive: dose: 12.5 mg/kg/injection, schedule: Q01DX009 (ip), vehicle: saline with Tween-80 102 % of control | dose: 20.0 mg/kg/injection, schedule: Q01DX009 (ip), vehicle: saline with Tween-80 108 % of control | dose: 25.0 mg/kg/injection, schedule: Q01DX009 (ip), vehicle: saline with Tween-80 123 % of control | dose: 30.0 mg/kg/injection, schedule: Q01DX009 (ip), vehicle: saline with Tween-80 110 % of control | dose: 44.0 mg/kg/injection, schedule: Q01DX009 (ip), vehicle: saline with Tween-80 105 % of control | dose: 50.0 mg/kg/injection, schedule: Q01DX009 (ip), vehicle: saline with Tween-80 123 % of control | dose: 66.0 mg/kg/injection, schedule: Q01DX009 (ip), vehicle: saline with Tween-80 111 % of control and 123 % of control | [1] 94 % of control

NC(=O)c1ncc[nH]c1=O
inactive: [13] 94 % of control | dose: 50.0 mg/kg/injection, schedule: Q01DX009 (ip), vehicle: saline 97 % of control | [9] 97 % of control | dose: 100.0 mg/kg/injection, schedule: Q01DX009 (ip), vehicle: saline 103 % of control | [4] 97 % of control | [10] 105 % of control | dose: 200.0 mg/kg/injection, schedule: Q01DX009 (ip), vehicle: saline 90 % of control | [5] 95 % of control | [6] 100 % of control
